ChEMBL document CHEMBL5505992, “Novel membrane-targeting isoxanthohumol-amine conjugates for combating methicillin-resistant Staphylococcus aureus (MRSA) infections” (Eur J Med Chem, 2024)
In brackets after ≈: the same amount, converted by molar mass.

What was measured:
Staphylococcus aureus [1] = assay: Antibacterial activity against methicillin-resistant Staphylococcus aureus clinical isolate MRSA-14 measured after 16 to 18 hrs by CLSI method; format: functional; details: time 16-18 hrs
[2] = Hemolytic activity in sheep erythrocytes incubated for 1 hr by absorbance based analysis; format: toxicity, cell-based, Ovis aries, Erythrocyte
Staphylococcus aureus [3] = assay: Antibacterial activity against methicillin-resistant Staphylococcus aureus clinical isolate MRSA-18 measured after 16 to 18 hrs by CLSI method; format: functional; details: time 16-18 hrs
Staphylococcus aureus [4] = assay: Antibacterial activity against Staphylococcus aureus ATCC 29213 measured after 16 to 18 hrs by CLSI method; format: functional; details: time 16-18 hrs
Staphylococcus aureus [5] = assay: Antibacterial activity against methicillin-resistant Staphylococcus aureus clinical isolate MRSA-23 measured after 16 to 18 hrs by CLSI method; format: functional; details: time 16-18 hrs
[6] = Selectivity index, ratio of HC50 for hemolytic activity in sheep erythrocytes to MIC for antibacterial activity against Staphylococcus aureus ATCC 29213; format: toxicity, cell-based; details: read-out: Selectivity Index
Staphylococcus aureus [7] = assay: Antibacterial activity against methicillin-resistant Staphylococcus aureus clinical isolate MRSA-21 measured after 16 to 18 hrs by CLSI method; format: functional; details: time 16-18 hrs
Staphylococcus aureus [8] = assay: Antibacterial activity against methicillin-resistant Staphylococcus aureus clinical isolate MRSA-22 measured after 16 to 18 hrs by CLSI method; format: functional; details: time 16-18 hrs
Escherichia coli = assay: Antibacterial activity against Escherichia coli ATCC25922 measured after 16 to 18 hrs by CLSI method; format: functional; details: time 16-18 hrs
Staphylococcus aureus [9] = assay: Antibacterial activity against methicillin-resistant Staphylococcus aureus clinical isolate MRSA-16 measured after 16 to 18 hrs by CLSI method; format: functional; details: time 16-18 hrs
Staphylococcus aureus [10] = assay: Antibacterial activity against methicillin-resistant Staphylococcus aureus clinical isolate MRSA-11 measured after 16 to 18 hrs by CLSI method; format: functional; details: time 16-18 hrs
Staphylococcus aureus [11] = assay: Antibacterial activity against methicillin-resistant Staphylococcus aureus clinical isolate MRSA-17 measured after 16 to 18 hrs by CLSI method; format: functional; details: time 16-18 hrs
Staphylococcus aureus [12] = assay: Antibacterial activity against methicillin-resistant Staphylococcus aureus clinical isolate MRSA-20 measured after 16 to 18 hrs by CLSI method; format: functional; details: time 16-18 hrs
Staphylococcus aureus [13] = assay: Antibacterial activity against methicillin-resistant Staphylococcus aureus clinical isolate MRSA-13 measured after 16 to 18 hrs by CLSI method; format: functional; details: time 16-18 hrs

Structure (SMILES) | MIC (Staphylococcus aureus [1]) [µg/mL] | HC50 at 1 h [2] [µg/mL] | MIC (Staphylococcus aureus [3]) [µg/mL] | MIC (Staphylococcus aureus [4]) [µg/mL] | MIC (Staphylococcus aureus [5]) [µg/mL] | selectivity ratio [6] | MIC (Staphylococcus aureus [7]) [µg/mL] | MIC (Staphylococcus aureus [8]) [µg/mL] | MIC (Escherichia coli) [µg/mL] | MIC (Staphylococcus aureus [9]) [µg/mL] | MIC (Staphylococcus aureus [10]) [µg/mL] | MIC (Staphylococcus aureus [11]) [µg/mL] | MIC (Staphylococcus aureus [12]) [µg/mL] | MIC (Staphylococcus aureus [13]) [µg/mL]
COc1cc(OCCCN2CCCCC2C)c(CC=C(C)C)c2c1C(=O)CC(c1ccc(OCCCN3CCCCC3C)cc1)O2 (centres undefined) | 32 (≈ 50.6 µM) | > 1280 | 32 (≈ 50.6 µM) | 32 (≈ 50.6 µM) | 32 (≈ 50.6 µM) | > 40 | 32 (≈ 50.6 µM) | 16 (≈ 25.3 µM) | > 128 | 16 (≈ 25.3 µM) | 32 (≈ 50.6 µM) | 32 (≈ 50.6 µM) | 32 (≈ 50.6 µM) | 32 (≈ 50.6 µM)
COc1cc(OCCCCN2CCSCC2)c(CC=C(C)C)c2c1C(=O)CC(c1ccc(OCCCCN3CCSCC3)cc1)O2 (centres undefined) | > 128 | > 640 | > 128 | 64 (≈ 95.7 µM) | > 128 | > 10 | > 128 | > 128 | > 128 | > 128 | > 128 | > 128 | > 128 | > 128
COc1cc(OCCCCCN2CCSCC2)c(CC=C(C)C)c2c1C(=O)CC(c1ccc(OCCCCCN3CCSCC3)cc1)O2 (centres undefined) | > 128 | > 640 | > 128 | 32 (≈ 45.9 µM) | > 128 | > 20 | > 128 | > 128 | > 128 | > 128 | > 128 | > 128 | > 128 | > 128
COc1cc(OCCCCCN2CCN(C)CC2)c(CC=C(C)C)c2c1C(=O)CC(c1ccc(OCCCCCN3CCN(C)CC3)cc1)O2 (centres undefined) | 16 (≈ 23.2 µM) | > 1280 | 16 (≈ 23.2 µM) | 16 (≈ 23.2 µM) | 16 (≈ 23.2 µM) | > 80 | 16 (≈ 23.2 µM) | 16 (≈ 23.2 µM) | > 128 | 16 (≈ 23.2 µM) | 16 (≈ 23.2 µM) | 8 (≈ 11.6 µM) | 16 (≈ 23.2 µM) | 16 (≈ 23.2 µM)
CCCCN(CCCC)CCCCOc1ccc(C2CC(=O)c3c(OC)cc(OCCCCN(CCCC)CCCC)c(CC=C(C)C)c3O2)cc1 (centres undefined) | 4 (≈ 5.55 µM) | 1200 | 8 (≈ 11.1 µM) | 4 (≈ 5.55 µM) | 8 (≈ 11.1 µM) | 300 | 8 (≈ 11.1 µM) | 8 (≈ 11.1 µM) | > 128 | 4 (≈ 5.55 µM) | 8 (≈ 11.1 µM) | 4 (≈ 5.55 µM) | 4 (≈ 5.55 µM) | 8 (≈ 11.1 µM)
CCCN(CCC)CCCCOc1ccc(C2CC(=O)c3c(OC)cc(OCCCCN(CCC)CCC)c(CC=C(C)C)c3O2)cc1 (centres undefined) | 16 (≈ 24.1 µM) | > 1280 | 32 (≈ 48.1 µM) | 16 (≈ 24.1 µM) | 16 (≈ 24.1 µM) | > 80 | 16 (≈ 24.1 µM) | 16 (≈ 24.1 µM) | > 128 | 16 (≈ 24.1 µM) | 16 (≈ 24.1 µM) | 16 (≈ 24.1 µM) | 16 (≈ 24.1 µM) | 16 (≈ 24.1 µM)
COc1cc(OCCCCCN2CCOCC2)c(CC=C(C)C)c2c1C(=O)CC(c1ccc(OCCCCCN3CCOCC3)cc1)O2 (centres undefined) | 16 (≈ 24.1 µM) | > 1280 | 16 (≈ 24.1 µM) | 16 (≈ 24.1 µM) | 16 (≈ 24.1 µM) | > 80 | 16 (≈ 24.1 µM) | 8 (≈ 12 µM) | > 128 | 16 (≈ 24.1 µM) | 16 (≈ 24.1 µM) | 16 (≈ 24.1 µM) | 16 (≈ 24.1 µM) | 16 (≈ 24.1 µM)
COc1cc(OCCCCN2CCCCC2)c(CC=C(C)C)c2c1C(=O)CC(c1ccc(OCCCCN3CCCCC3)cc1)O2 (centres undefined) | 32 (≈ 50.6 µM) | 199 | 32 (≈ 50.6 µM) | 32 (≈ 50.6 µM) | 16 (≈ 25.3 µM) | > 6.2 | 32 (≈ 50.6 µM) | 16 (≈ 25.3 µM) | > 128 | 16 (≈ 25.3 µM) | 16 (≈ 25.3 µM) | 16 (≈ 25.3 µM) | 16 (≈ 25.3 µM) | 16 (≈ 25.3 µM)
CCCN(CCC)CCCOc1ccc(C2CC(=O)c3c(OC)cc(OCCCN(CCC)CCC)c(CC=C(C)C)c3O2)cc1 (centres undefined) | 16 (≈ 25.1 µM) | > 1280 | 16 (≈ 25.1 µM) | 16 (≈ 25.1 µM) | 16 (≈ 25.1 µM) | > 80 | 16 (≈ 25.1 µM) | 16 (≈ 25.1 µM) | > 128 | 8 (≈ 12.6 µM) | 16 (≈ 25.1 µM) | 8 (≈ 12.6 µM) | 16 (≈ 25.1 µM) | 8 (≈ 12.6 µM)
COc1cc(OCCCN2CCN(C)CC2)c(CC=C(C)C)c2c1C(=O)CC(c1ccc(OCCCN3CCN(C)CC3)cc1)O2 (centres undefined) | 64 (≈ 101 µM) | > 1280 | 64 (≈ 101 µM) | 64 (≈ 101 µM) | 64 (≈ 101 µM) | > 20 | 32 (≈ 50.4 µM) | 32 (≈ 50.4 µM) | > 128 | 64 (≈ 101 µM) | 32 (≈ 50.4 µM) | 32 (≈ 50.4 µM) | 64 (≈ 101 µM) | 64 (≈ 101 µM)
COc1cc(OCCCCN2CCC(C)CC2)c(CC=C(C)C)c2c1C(=O)CC(c1ccc(OCCCCN3CCC(C)CC3)cc1)O2 (centres undefined) | 16 (≈ 24.2 µM) | > 640 | 16 (≈ 24.2 µM) | 16 (≈ 24.2 µM) | 16 (≈ 24.2 µM) | > 40 | 8 (≈ 12.1 µM) | 8 (≈ 12.1 µM) | > 128 | 8 (≈ 12.1 µM) | 16 (≈ 24.2 µM) | 8 (≈ 12.1 µM) | 16 (≈ 24.2 µM) | 8 (≈ 12.1 µM)
